Results on one compound are retold here after patent publication US7105566B2, “Methods of treatment during vascular procedures” (Allergan, Inc., priority 2002, dated 2006).

Experiment [1] deals with male cynomolgus monkeys. Put plainly: Serum triglycerides of male cynomolgus monkeys treated by gastric intubation. Type of experiment: in vivo, cynomolgus monkey. As to conditions: 1.0 mg/0.4 ml/kg by gastric intubation, daily; mean of 3 monkeys. As for the experimental part: Five male cynomologus monkeys were employed in the study. […] Compound 1 is an RAR antagonist or inhibitor. The remaining two were similarly treated with a vehicle to serve as control. Serum samples were collected on days 1, 8, 15, 22 and 25 for triglyceride determination. Serum samples from days 8, 15, 22 and 25 were also assayed for the concentration of Compound 1.

Experiment [2] has as its system male SJL mice. The experiment can be described thus: Hepatic triglyceride (HTG) output after WR-1339 injection in fasted male SJL mice. The experiment is classed as in vivo, mouse. As to conditions: 20 mg/kg oral daily for 4 days; fasted. As for the experimental part: On day 4, animals were fasted after dosing, starting at 8 a.m. Following 6 hours of fasting, blood samples were collected prior to intravenous injection of WR-1339 at 100 mg/5 ml/kg. Additional serum samples were collected at 1 and 2 hours after WR-1339 injection. WR-1339 is a detergent that inactivates lipoprotein lipase and thus prevents the removal of triglycerides from circulation. By measuring the increase of STG after WR-1339 administration in fasted animals, the hepatic triglyceride (HTG) output during fasting can be estimated.
Due to the lack of effect of Compound 3 at 20 mg/kg, the dose was increased to 100 mg/kg in the same set of mice. STG was determined on day 3 prior to dosing (Day 3, 8 a.m.). […] To ensure that Compound 3 would be bioavailable, Compound 3 was dissolved in DMSO and given by intraperitoneal injections, once at 4 p.m. on day 3 and once at 8 a.m. on day 4, at a dosage of 100 mg/kg/injection. Administration of WR-1339 and blood collections on day 4 were similarly conducted as described above.

Consider `CCc1ccc(C2=CC(C)(C)Sc3ccc(C#Cc4ccc(C(=O)O)cc4)cc32)cc1` [Compound 1, 4-[[4-(4-ethylphenyl)-2,2-dimethyl-(2H)-thiochromen-6-yl]-ethynyl]-benzoic acid], for which the “Serum triglycerides Day 25, Mean” value in experiment [1] amounted to 24.0 mg/dL. The “HTG output after WR-1339 injection” value in experiment [2] is listed as “reduction of HTG output”.
